Experiment [1] addresses Recombinant human Cbl-b (aa 36-427) (Homo sapiens, UniProt Q13191). Description: Cbl-b Biochemical Assay (TR-FRET). The note with it: read-out: TR-FRET hCbl-b IC50. (In general: TR-FRET usually uses a lanthanide donor and a delayed reading to cut background.)
Experiment [2] relates to Jurkat (clone E6-1) cells with NFAT luciferase reporter. Description: Jurkat reporter assay (NFAT Luciferase). Type of experiment: cell-based. The following applies: Homo sapiens; Jurkat NFAT luciferase reporter cells, anti-CD3 stimulation, 6 hr; read-out: Jurkat NFAT EC50. (In general: Reporter assays use an easily measured gene product as a stand-in for the process of interest.)

The target of experiment [3] is T1, Recombinant human c-Cbl (aa 47-435) (Homo sapiens, UniProt P22681).
T1 sequence (P22681 47-435): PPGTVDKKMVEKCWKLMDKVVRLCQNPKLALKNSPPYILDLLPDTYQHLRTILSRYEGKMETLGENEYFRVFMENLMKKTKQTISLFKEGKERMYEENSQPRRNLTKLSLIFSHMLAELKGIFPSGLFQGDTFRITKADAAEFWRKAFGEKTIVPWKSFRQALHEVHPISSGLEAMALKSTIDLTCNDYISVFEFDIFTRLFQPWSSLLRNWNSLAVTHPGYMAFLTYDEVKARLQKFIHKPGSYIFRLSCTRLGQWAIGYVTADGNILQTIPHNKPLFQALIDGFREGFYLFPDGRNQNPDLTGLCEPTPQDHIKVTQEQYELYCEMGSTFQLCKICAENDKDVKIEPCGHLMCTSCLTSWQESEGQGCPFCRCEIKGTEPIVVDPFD
The experiment can be described thus: c-Cbl Biochemical Assay (TR-FRET). The following applies: hc-Cbl Biochemical Assay (TR-FRET); read-out: TR-FRET hcCbl IC50.

Sequence of Recombinant human Cbl-b (aa 36-427) (Q13191 36-427): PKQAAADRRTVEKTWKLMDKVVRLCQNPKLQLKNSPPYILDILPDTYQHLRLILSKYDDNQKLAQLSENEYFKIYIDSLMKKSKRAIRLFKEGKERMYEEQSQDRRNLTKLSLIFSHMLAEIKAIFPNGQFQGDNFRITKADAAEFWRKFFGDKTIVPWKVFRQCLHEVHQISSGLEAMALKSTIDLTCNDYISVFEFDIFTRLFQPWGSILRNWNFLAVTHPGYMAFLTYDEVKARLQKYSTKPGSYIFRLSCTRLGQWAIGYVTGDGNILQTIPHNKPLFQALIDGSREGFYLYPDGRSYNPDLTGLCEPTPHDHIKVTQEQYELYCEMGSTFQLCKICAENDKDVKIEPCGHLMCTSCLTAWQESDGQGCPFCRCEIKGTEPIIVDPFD

For `Cn1cnnc1-c1cc(F)ccc1-c1cccc(-c2nc3cc(CN[C@@H]4CCCC[C@@H]4O)cc(C(F)(F)F)c3o2)c1` [DF-2, (1S,2R)-2-(((2-(4′-Fluoro-2′-(4-methyl-4H-1,2,4-triazol-3-yl)-[1,1′-biphenyl]-3-yl)-7-(trifluoromethyl)benzo[d]oxazol-5-yl)methyl)amino)cyclohexan-1-ol], the IC50 in experiment [1] and in experiment [3] was under 0.2 µM throughout. In addition, in experiment [2], the concentration for a half-maximal effect (EC50) is under 0.2 µM.

On to `CC[C@H](O)CNCc1cc(C(F)(F)F)c2oc(-c3cccc(-c4ccc(F)cc4-c4nncn4C)c3)nc2c1` [DG-2, (S)-1-(((2-(4′-Fluoro-2′-(4-methyl-4H-1,2,4-triazol-3-yl)-[1,1′-biphenyl]-3-yl)-7-(trifluoromethyl)benzo[d]oxazol-5-yl)methyl)amino)butan-2-ol], for which the IC50 in experiment [1] and in experiment [3] was under 0.2 µM throughout. Besides, in experiment [2], the concentration giving a half-maximal response (EC50) was under 0.2 µM.

Consider `Cn1cnnc1-c1cc(F)ccc1-c1cccc(-c2nc3cc(CN[C@@H]4COC[C@@H]4O)cc(C(F)(F)F)c3o2)c1` [DH-2, (3R,4R)-4-(((2-(4′-Fluoro-2′-(4-methyl-4H-1,2,4-triazol-3-yl)-[1,1′-biphenyl]-3-yl)-7-(trifluoromethyl)benzo[d]oxazol-5-yl)methyl)amino)tetrahydrofuran-3-ol], for which the half-inhibitory concentration (IC50) in experiment [1] and in experiment [3] was under 0.2 µM throughout. The 50% effective concentration (EC50) in experiment [2] was under 0.2 µM.

As for `Cn1cnnc1-c1cc(F)ccc1-c1cccc(-c2nc3cc(C(=O)NO)cc(C(F)(F)F)c3o2)c1` [DI-1, 2-(4′-Fluoro-2′-(4-methyl-4H-1,2,4-triazol-3-yl)-[1,1′-biphenyl]-3-yl)-N-hydroxy-7-(trifluoromethyl)benzo[d]oxazole-5-carboxamide], the IC50 in experiment [1] was under 0.2 µM; in experiment [3], 1 to 10 µM. The concentration giving a half-maximal response (EC50) in experiment [2] was in the range of 10 to 50 µM.

On to `CON(C)C(=O)c1cc(C(F)(F)F)c2oc(-c3cccc(-c4ccc(F)cc4-c4nncn4C)c3)nc2c1` [DJ-2, 2-(4′-Fluoro-2′-(4-methyl-4H-1,2,4-triazol-3-yl)-[1,1′-biphenyl]-3-yl)-N-methoxy-N-methyl-7-(trifluoromethyl)benzo[d]oxazole-5-carboxamide], for which the half-inhibitory concentration (IC50) in experiment [1] is under 0.2 µM; in experiment [3] it was 0.2 to 1 µM. Also, the concentration for a half-maximal effect (EC50) in experiment [2] was in the range of 1 to 10 µM.

In the case of `Cn1cnnc1-c1cc(F)ccc1-c1cccc(-c2nc3cc(CNC[C@H](O)C(F)(F)F)cc(C(F)(F)F)c3o2)c1` [DM-2, (S)-1,1,1-Trifluoro-3-(((2-(4′-fluoro-2′-(4-methyl-4H-1,2,4-triazol-3-yl)-[1,1′-biphenyl]-3-yl)-7-(trifluoromethyl)benzo[d]oxazol-5-yl)methyl)amino)propan-2-ol], the IC50 in experiment [1] and in experiment [3] was under 0.2 µM throughout. Moreover, the EC50 in experiment [2] is under 0.2 µM.

With `Cn1cnnc1-c1cc(F)ccc1-c1cccc(-c2nc3cc(CNCC(C)(C)C#N)cc(C(F)(F)F)c3o2)c1` [DN-2, 3-(((2-(4′-fluoro-2′-(4-methyl-4H-1,2,4-triazol-3-yl)-[1,1′-biphenyl]-3-yl)-7-(trifluoromethyl)benzo[d]oxazol-5-yl)methyl)amino)-2,2-dimethylpropanenitrile], the 50% inhibitory concentration (IC50) in experiment [1] and in experiment [3] was under 0.2 µM each time. In addition, the EC50 in experiment [2] fell in the range of 0.2 to 1 µM.

`Cn1cnnc1-c1cc(F)ccc1-c1cccc(-c2nc3cc(CN[C@@H]4CCC[C@@]4(C)O)cc(C(F)(F)F)c3o2)c1` [DP-5, (1R,2R)-2-(((2-(4′-Fluoro-2′-(4-methyl-4H-1,2,4-triazol-3-yl)-[1,1′-biphenyl]-3-yl)-7-(trifluoromethyl)benzo[d]oxazol-5-yl)methyl)amino)-1-methylcyclopentan-1-ol]: the IC50 in experiment [1] and in experiment [3] was under 0.2 µM in each case. Also, the concentration giving a half-maximal response (EC50) in experiment [2] lay in the range of 0.2 to 1 µM.

For the compound `Cn1cnnc1-c1cc(F)ccc1-c1cccc(-c2nc3cc(CN[C@@H]4CCC[C@]4(C)O)cc(C(F)(F)F)c3o2)c1` [DP-6, (1S,2R)-2-(((2-(4′-Fluoro-2′-(4-methyl-4H-1,2,4-triazol-3-yl)-[1,1′-biphenyl]-3-yl)-7-(trifluoromethyl)benzo[d]oxazol-5-yl)methyl)amino)-1-methylcyclopentan-1-ol], the half-inhibitory concentration (IC50) in experiment [1] and in experiment [3] was under 0.2 µM each time. Also, the half-maximal effective concentration (EC50) in experiment [2] is under 0.2 µM.

On to `Cn1cnnc1-c1cc(F)ccc1-c1cccc(-c2nc3cc(CNCC4(O)CCC4)ccc3o2)c1` [DQ-1, 1-((((2-(4′-Fluoro-2′-(4-methyl-4H-1,2,4-triazol-3-yl)-[1,1′-biphenyl]-3-yl)benzo[d]oxazol-5-yl)methyl)amino)methyl)cyclobutan-1-ol], for which the concentration for half-maximal inhibition (IC50) in experiment [1] and in experiment [3] was under 0.2 µM in each case. Also, the concentration for a half-maximal effect (EC50) in experiment [2] is under 0.2 µM.

Regarding `Cn1cnnc1-c1cc(F)ccc1-c1cccc(-c2nc3cc(CN4CC[C@@H](C#N)C4)cc(C(F)(F)F)c3o2)c1` [DR-2, (R)-1-((2-(4′-Fluoro-2′-(4-methyl-4H-1,2,4-triazol-3-yl)-[1,1′-biphenyl]-3-yl)-7-(trifluoromethyl)benzo[d]oxazol-5-yl)methyl)pyrrolidine-3-carbonitrile], the 50% inhibitory concentration (IC50) in experiment [1] and in experiment [3] was under 0.2 µM throughout. Further, in experiment [2], the concentration for a half-maximal effect (EC50) was in the range of 0.2 to 1 µM.

For the compound `Cn1cnnc1-c1cc(F)ccc1-c1cccc(-c2nc3cc(CNC4CCCC4)cc(C(F)(F)F)c3o2)c1` [DS-2, N-((2-(4′-Fluoro-2′-(4-methyl-4H-1,2,4-triazol-3-yl)-[1,1′-biphenyl]-3-yl)-7-(trifluoromethyl)benzo[d]oxazol-5-yl)methyl)cyclopentanamine], the IC50 in experiment [1] and in experiment [3] was under 0.2 µM throughout. In experiment [2], the EC50 was under 0.2 µM.

`Cn1cnnc1-c1cc(F)ccc1-c1cccc(-c2nc3cc(CN[C@@H]4CC[C@@H]4O)cc(C(F)(F)F)c3o2)c1` [DU-2, (1S,2R)-2-(((2-(4′-Fluoro-2′-(4-methyl-4H-1,2,4-triazol-3-yl)-[1,1′-biphenyl]-3-yl)-7-(trifluoromethyl)benzo[d]oxazol-5-yl)methyl)amino)cyclobutan-1-ol]: the IC50 in experiment [1] and in experiment [3] was under 0.2 µM each time. Also, the EC50 in experiment [2] is under 0.2 µM.

As for `Cn1cnnc1-c1cc(F)ccc1-c1cccc(-c2nc3cc(CNCC4CCCC4)cc(C(F)(F)F)c3o2)c1` [DV-2, 1-Cyclopentyl-N-((2-(4′-fluoro-2′-(4-methyl-4H-1,2,4-triazol-3-yl)-[1,1′-biphenyl]-3-yl)-7-(trifluoromethyl)benzo[d]oxazol-5-yl)methyl)methanamine], the IC50 in experiment [1] and in experiment [3] was under 0.2 µM each time. Moreover, in experiment [2], the EC50 was under 0.2 µM.

Regarding `COc1cc(CO)cc2nc(-c3cccc(-c4ccc(F)cc4-c4nncn4C)c3)oc12` [DW-3, (2-(4′-Fluoro-2′-(4-methyl-4H-1,2,4-triazol-3-yl)-[1,1′-biphenyl]-3-yl)-7-methoxybenzo[d]oxazol-5-yl)methanol], the IC50 in experiment [1] and in experiment [3] was 1 to 10 µM in each case. In experiment [2], the EC50 was in the range of 10 to 50 µM.

For the compound `COc1cc(CN[C@@H]2CCC[C@@H]2O)cc2nc(-c3cccc(-c4ccc(F)cc4-c4nncn4C)c3)oc12` [DX-2, (1S,2R)-2-(((2-(4′-Fluoro-2′-(4-methyl-4H-1,2,4-triazol-3-yl)-[1,1′-biphenyl]-3-yl)-7-methoxybenzo[d]oxazol-5-yl)methyl)amino)cyclopentan-1-ol], the IC50 in experiment [1] and in experiment [3] was under 0.2 µM in each case. Also, in experiment [2], the EC50 was under 0.2 µM.

Turning to `Cn1cnnc1-c1cc(F)ccc1-c1cccc(-c2nc3cc(CNCC4(C#N)CCOCC4)cc(C(F)(F)F)c3o2)c1` [DY-1, 4-((((2-(4′-Fluoro-2′-(4-methyl-4H-1,2,4-triazol-3-yl)-[1,1′-biphenyl]-3-yl)-7-(trifluoromethyl)benzo[d]oxazol-5-yl)methyl)amino)methyl)tetrahydro-2H-pyran-4-carbonitrile], the concentration for half-maximal inhibition (IC50) in experiment [1] is under 0.2 µM; in experiment [3] it was 0.2 to 1 µM. The EC50 in experiment [2] is 0.2 to 1 µM.

As to `COCCNCc1ccc2oc(-c3cccc(-c4ccc(F)cc4-c4nncn4C)c3)nc2c1` [DZ-1, N-((2-(4′-Fluoro-2′-(4-methyl-4H-1,2,4-triazol-3-yl)-[1,1′-biphenyl]-3-yl)benzo[d]oxazol-5-yl)methyl)-2-methoxyethan-1-amine], the IC50 in experiment [1] and in experiment [3] was 0.2 to 1 µM in each case. In experiment [2], the EC50 is 1 to 10 µM.

For the compound `C[C@H](N[C@@H]1CCC[C@@H]1O)c1cc(C(F)(F)F)c2oc(-c3cccc(-c4ccc(F)cc4-c4nncn4C)c3)nc2c1` [EA-1, (1S,2R)-2-(((S)-1-(2-(4′-Fluoro-2′-(4-methyl-4H-1,2,4-triazol-3-yl)-[1,1′-biphenyl]-3-yl)-7-(trifluoromethyl)benzo[d]oxazol-5-yl)ethyl)amino)cyclopentan-1-ol], the IC50 in experiment [1] and in experiment [3] was under 0.2 µM throughout. In experiment [2], the half-maximal effective concentration (EC50) is under 0.2 µM.

Regarding `C[C@@H](N[C@@H]1CCC[C@@H]1O)c1cc(C(F)(F)F)c2oc(-c3cccc(-c4ccc(F)cc4-c4nncn4C)c3)nc2c1` [EA-2, (1S,2R)-2-(((R)-1-(2-(4′-Fluoro-2′-(4-methyl-4H-1,2,4-triazol-3-yl)-[1,1′-biphenyl]-3-yl)-7-(trifluoromethyl)benzo[d]oxazol-5-yl)ethyl)amino)cyclopentan-1-ol], the concentration for half-maximal inhibition (IC50) in experiment [1] and in experiment [3] was under 0.2 µM in each case. In addition, the 50% effective concentration (EC50) in experiment [2] was under 0.2 µM.

In general, IC50 refers to the concentration that gives 50% inhibition. Usually EC50 stands for the concentration giving half of the maximal effect.

Source of the values: patent publication US20250163038A1, “CBL-B MODULATORS AND USES THEREOF” (Nimbus Clio, Inc., priority 2021, published 2025).
